Where a name gives a salt, the structure may show the parent alone.
Columns and labels:
P2X7 [1] = target: T1, P2X7 (Homo sapiens, UniProt Q99572); experiment: BzATP-induced IL-1β secretion from human monocytes/macrophages activated by beta amyloid peptide 1-42 (ELISA); format: cell-based; set-up: Monocytes were isolated from peripheral blood mononuclear cells (PBMCs); endogenous in cells; host or cells: primary monocytes isolated from peripheral blood mononuclear cells
T1 sequence (Q99572 1-595): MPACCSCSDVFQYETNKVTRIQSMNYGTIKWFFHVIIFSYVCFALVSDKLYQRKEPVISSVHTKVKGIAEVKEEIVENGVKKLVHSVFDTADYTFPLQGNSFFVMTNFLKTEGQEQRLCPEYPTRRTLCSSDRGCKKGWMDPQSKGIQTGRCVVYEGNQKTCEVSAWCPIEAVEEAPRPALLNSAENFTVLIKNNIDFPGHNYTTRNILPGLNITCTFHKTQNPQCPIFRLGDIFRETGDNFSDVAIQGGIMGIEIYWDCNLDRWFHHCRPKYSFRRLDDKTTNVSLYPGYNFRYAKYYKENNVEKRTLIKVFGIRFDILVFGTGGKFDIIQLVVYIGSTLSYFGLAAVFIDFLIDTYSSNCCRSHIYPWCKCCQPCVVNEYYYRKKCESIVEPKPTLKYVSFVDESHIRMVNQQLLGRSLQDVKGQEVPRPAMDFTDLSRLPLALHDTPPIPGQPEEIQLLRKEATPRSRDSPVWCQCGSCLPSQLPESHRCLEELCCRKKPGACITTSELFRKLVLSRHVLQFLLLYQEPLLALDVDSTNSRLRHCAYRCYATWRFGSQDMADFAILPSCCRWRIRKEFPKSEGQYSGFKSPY
Procedure: Cell isolation: Monocytes were isolated from peripheral blood mononuclear cells (PBMCs) as follows. Whole blood was layered directly onto Histopak 1077-1 columns (Sigma Biochemicals) and centrifuged at 800×g for 15 minutes. The PBMC band of cells was removed to a fresh 50 ml culture tube and diluted 1:1 with wash buffer (Phosphate buffered saline, pH 7.4 containing 2 mM EDTA and 5 mg/ml BSA) followed by centrifugation at 800×g for 5 minutes. Cells were then washed by sequential resuspension of the cell pellet in wash buffer and centrifugation at 600×g for 5 minutes. The wash process was repeated until the supernatant was clear of contaminating platelets (5 to 6 washes). Monocytes were then purified from the PBMCs by negative selection using a monocyte isolation kit (Miltenyi Biotec, Inc) that contains antibodies to non-monocytic cells, running the cells over a magnetic column to remove antibody-bound cells, and collecting the flow through volume of monocytes. Monocytes were washed once with wash buffer and seeded at 10E5 cells per well in 100 μl serum-free RPMI 1640 in 96-well plates and incubated for 1 hour at 37° C. in a 5% CO2/95% humidified tissue culture incubator. After 1 hour, the medium was replaced with 100 μl complete culture medium (RPMI 1640, 10% human serum-type AB (heat inactivated), 25 mM HEPES, 2 mM glutamine, 50 U/ml each of penicillin and streptomycin) and incubated overnight (16 hours). Dosing regimen: The next day, the culture medium was replaced with 100 μl fresh complete culture medium in the absence or presence of human beta amyloid 1-42 peptide (5 μM) and incubated at 37° C. in a 5% CO2/95% humidified tissue culture incubator for 5 hours. Medium was then removed and discarded. Each well was washed once with Hanks buffered saline (HBSS) containing 1 mM CaCl2 followed by the addition of 80 μl of HBSS/CaCl2. […] Medium was then removed to new 96-well plates for storage at −70° C. until the IL-1β content was quantitated by ELISA (from R&D Systems). The cells were washed once with HBSS/CaCl2 followed by lysing the cells with 100 μl ice cold lysis buffer (100 mM Tris, pH 7.6, 1% triton X-100, and 1 tablet per 30 ml Complete TM protease inhibitor from Roche Biochemicals, Inc). Cell lysates were stored at −70° C. until the IL-1β was quantitated by ELISA. The results thus obtained for percent inhibition of BzATP-induced IL-1β secretion using a few of the P2X-7 compounds of the present invention are summarized in Table 7.

P2X7 [2] = target: T1, P2X7; experiment: YO-PRO-1 dye uptake assay in U373 cells stably expressing P2X7; format: cell-based; set-up: The complete open reading frame of human P2X7 was amplified from Incyte clone 148057; expressed in transfected cells; details: dye uptake through P2X7, U373 cells, 300 μM BzATP, 5 μM YO-PRO-1, test compounds 30 nM to 3 μM; read-out: IC50
Method in brief: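 U373 cells stably expressing human P2X7 preincubated 20 min at 37° C. with compound (30 nM to 3 μM) in Mg/Ca-free HBSS. YO-PRO-1 (5 μM final) and BzATP (300 μM final) then added for 1.5 h at 37° C.; dye-uptake fluorescence compared with compound-free control.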

[3] = test system: Long Evans derived male rats; experiment: carrageenan induced paw edema; format: in vivo, rat; details: 150 mg/kg, PO
Balb/cByJ mice = experiment: monoclonal antibody (mAb) type II collagen induced arthritis; format: in vivo, mouse; details: 3 mg/kg×3, PO
Procedure: This Example illustrates the anti-inflammatory activity of the compounds of this invention using a model of Balb/c mice subjected to monoclonal antibody (mAb) type II collagen induced arthritis.
A compound of this invention is dissolved in vehicle of 2% Tween 80/0.9% NaCl, at doses of 50 or 30 and administered orally (50 mg/kg) or intraperitoneally at 30 mg/kg once daily for 3 consecutive days after monoclonal antibody of collagen was injected. Dosing volume is 20 ml/kg.
Groups of 5 Balb/cByJ mice strain, 6-8 weeks of age, are used for the induction of arthritis by monoclonal antibodies (mAbs) responding to type II collagen, plus lipopolysaccharide (LPS). The animals are administered intravenously with a combination of 4 different mAbs (D8, F10, DI-2G and A2) in total of 4 mg/mouse at day 0, and followed by intravenous 25 μg of LPS 72 hours later (day 3). From day 3, one hour after LPS administration, ML-659 at 50 mg/kg (PO) or 30 mg/kg (IP) and vehicle (2% Tween 80/0.9% NaCl, PO) as well as the positive control indomethacin, 3 mg/kg (PO) are administrated once daily for 3 consecutive days. A plethysmometer (Ugo Basile Cat # 7150) with water cell (12 mm diameter) is used for the measurement of increase in volume of the two hind paws at day 0, 5, 7, 10, 14, and 17. The percent inhibition of increase in volume is calculated by the following formula: Inhibition (%): [1−(Tn−To)/(Cn−Co)]×100 Where: Co (Cn): volume of day 0 (day n) in vehicle control To (Tn): volume of day 0 (day n) in test compound-treated group The reduction of both of two hind paws edema by more than 30% is considered significant.

Wistar derived male rats = experiment: 2,4-dinitrobenzenesulfonic acid (DNBS) induced distal colitis; format: in vivo, rat; details: 30 mg/kg×7, oral administration
[4] = BzATP (300 μM)-induced IL-1β secretion, human monocytes primed with beta amyloid 1-42 (5 μM), read-out: IC50

Row | SMILES | IC50 (P2X7 [2]) [µM] | also measured
1 | Fc1cccc(CNC2=N[C@@H](c3cccc(F)c3)[C@@H](c3cccc(F)c3)N2)c1 [[cis-4,5-bis-(3-Fluorophenyl)-4,5-dihydro-1H-imidazol-2-yl]-(3-fluorobenzyl)amine hydrochloride] | 0.042 | IC50 (P2X7 [1]): 1.28 µM
2 | CC(=O)Oc1ccccc1C(=O)O [aspirin] | – | inhibition of inflammation (hind paw edema) [3]: 38%
3 | Fc1ccc(CNC2=N[C@@H](c3ccccc3)[C@@H](c3ccccc3)N2)cc1F [cis-4,5-diphenyl-2-[(3,4-difluorobenzyl)amino]-4,5-dihydro-1H-imidazole] | 0.065 | –
4 | c1ccc(CNC2=N[C@@H](c3ccccc3)[C@@H](c3ccccc3)N2)cc1 [cis-4,5-diphenyl-2-benzylamino-4,5-dihydro-1H-imidazole] | 0.135 | –
5 | c1ccc(COCC2=N[C@@H](c3ccccc3)[C@@H](c3ccccc3)N2)cc1 [cis-4,5-diphenyl-2-benzyloxymethyl-4,5-dihydro-1H-imidazole] | 0.325 | –
6 | c1ccc(CSC2=N[C@@H](c3ccccc3)[C@@H](c3ccccc3)N2)cc1 [cis-4,5-diphenyl-2-benzylthio-4,5-dihydro-1H-imidazole] | 0.214 | –
7 | c1ccc(OCC2=N[C@@H](c3ccccc3)[C@@H](c3ccccc3)N2)cc1 [cis-4,5-diphenyl-2-phenoxymethyl-4,5-dihydro-1H-imidazole] | 0.612 | –
8 | OC(C1=N[C@@H](c2ccccc2)[C@@H](c2ccccc2)N1)c1ccccc1 (stereo partly drawn) [cis-(4,5-diphenyl-4,5-dihydro-1H-imidazol-2-yl)-phenyl-methanol] | 0.241 | –
9 | Fc1ccc(CNC2=NC(c3ccccc3)C(c3ccccc3)N2)cc1 (stereo not shown) [hydrochloride] | – | IC50 (P2X7 [1]; [4]): 0.693 µM
10 | COc1ccc2c(c1)c(CC(=O)O)c(C)n2C(=O)c1ccc(Cl)cc1 [indomethacin] | – | effect relative to the vehicle treated group (hind paws edema) (Balb/cByJ mice; day 5): 63%; effect relative to the vehicle treated group (hind paws edema) (Balb/cByJ mice; day 7): 70%; effect relative to the vehicle treated group (hind paws edema) (Balb/cByJ mice; day 10): 80%; effect relative to the vehicle treated group (hind paws edema) (Balb/cByJ mice; day 14): 88%; effect relative to the vehicle treated group (hind paws edema) (Balb/cByJ mice; day 17): 85%
11 | O=C(O)c1cc(/N=N/c2ccc(S(=O)(=O)Nc3ccccn3)cc2)ccc1O [sulfasalazine] | – | inhibition of the inflammation (Wistar derived male rats): 37%
12 | CC(C)(CC1=NC(c2ccccc2)C(c2ccccc2)N1)c1ccccc1 (stereo not shown) [trifluoroacetate] | – | IC50 (P2X7 [1]; [4]): 0.178 µM
13 | C[C@@H](C1=N[C@@H](c2ccccc2)[C@@H](c2ccccc2)N1)c1ccccc1 [trifluoroacetate] | 0.108 | –
14 | C[C@H](C1=N[C@@H](c2ccccc2)[C@@H](c2ccccc2)N1)c1ccccc1 [trifluoroacetate] | 0.11 | –
15 | Cc1ccc(CC2=N[C@@H](c3ccccc3)[C@@H](c3ccccc3)N2)cc1F [trifluoroacetate] | 0.178 | –
16 | Cc1ccc(F)c(CC2=N[C@@H](c3ccccc3)[C@@H](c3ccccc3)N2)c1F [trifluoroacetate] | 0.594 | –
17 | Cc1ccc(F)cc1CC1=N[C@@H](c2ccccc2)[C@@H](c2ccccc2)N1 [trifluoroacetate] | 0.319 | –
18 | Fc1c(Cl)cccc1CC1=N[C@@H](c2ccccc2)[C@@H](c2ccccc2)N1 [trifluoroacetate] | 0.142 | –
19 | Fc1ccc(CC2=N[C@@H](c3ccccc3)[C@@H](c3ccccc3)N2)c(Cl)c1 [trifluoroacetate] | 0.12 | –
20 | Fc1ccc(CC2=N[C@@H](c3ccccc3)[C@@H](c3ccccc3)N2)cc1Cl [trifluoroacetate] | 0.013 | IC50 (P2X7 [1]; [4]): 0.157 µM
21 | Fc1ccc(F)c(CC2=N[C@@H](c3ccccc3)[C@@H](c3ccccc3)N2)c1 [trifluoroacetate] | 0.142 | –
22 | Fc1cccc(Cl)c1CC1=N[C@@H](c2ccccc2)[C@@H](c2ccccc2)N1 [trifluoroacetate] | 0.826 | –
23 | Fc1cccc(F)c1CC1=N[C@@H](c2ccccc2)[C@@H](c2ccccc2)N1 [trifluoroacetate] | 0.966 | –
24 | O=C(Nc1ccccc1)OC(C1=NC(c2ccccc2)C(c2ccccc2)N1)c1ccccc1 (stereo not shown) [trifluoroacetate] | 0.625 | –
25 | c1ccc([C@H]2NC(C3(c4ccccc4)CC3)=N[C@H]2c2ccccc2)cc1 [trifluoroacetate] | 0.334 | –
